Results: patent US9926282B2, “Phthalazinones and isoquinolinones as rock inhibitors” (BRISTOL-MYERS SQUIBB COMPANY, priority 2013, dated 2018)

Experiments:
ROCK1 = ROCK1 (Homo sapiens (Human), UniProt Q13464); test: ROCK assay (LABCHIP peptide phosphorylation), ROCK1; assay type: biochemical; settings: 5 μM ATP, 1.5 μM peptide substrate; read-out: ROCK1 IC50
ROCK2 = ROCK2 (Homo sapiens (Human), UniProt O75116); test: ROCK assay (LABCHIP peptide phosphorylation), ROCK2; assay type: biochemical; settings: 5 μM ATP, 1.5 μM peptide substrate
Chain of ROCK2 (O75116 whole entry, species assumed): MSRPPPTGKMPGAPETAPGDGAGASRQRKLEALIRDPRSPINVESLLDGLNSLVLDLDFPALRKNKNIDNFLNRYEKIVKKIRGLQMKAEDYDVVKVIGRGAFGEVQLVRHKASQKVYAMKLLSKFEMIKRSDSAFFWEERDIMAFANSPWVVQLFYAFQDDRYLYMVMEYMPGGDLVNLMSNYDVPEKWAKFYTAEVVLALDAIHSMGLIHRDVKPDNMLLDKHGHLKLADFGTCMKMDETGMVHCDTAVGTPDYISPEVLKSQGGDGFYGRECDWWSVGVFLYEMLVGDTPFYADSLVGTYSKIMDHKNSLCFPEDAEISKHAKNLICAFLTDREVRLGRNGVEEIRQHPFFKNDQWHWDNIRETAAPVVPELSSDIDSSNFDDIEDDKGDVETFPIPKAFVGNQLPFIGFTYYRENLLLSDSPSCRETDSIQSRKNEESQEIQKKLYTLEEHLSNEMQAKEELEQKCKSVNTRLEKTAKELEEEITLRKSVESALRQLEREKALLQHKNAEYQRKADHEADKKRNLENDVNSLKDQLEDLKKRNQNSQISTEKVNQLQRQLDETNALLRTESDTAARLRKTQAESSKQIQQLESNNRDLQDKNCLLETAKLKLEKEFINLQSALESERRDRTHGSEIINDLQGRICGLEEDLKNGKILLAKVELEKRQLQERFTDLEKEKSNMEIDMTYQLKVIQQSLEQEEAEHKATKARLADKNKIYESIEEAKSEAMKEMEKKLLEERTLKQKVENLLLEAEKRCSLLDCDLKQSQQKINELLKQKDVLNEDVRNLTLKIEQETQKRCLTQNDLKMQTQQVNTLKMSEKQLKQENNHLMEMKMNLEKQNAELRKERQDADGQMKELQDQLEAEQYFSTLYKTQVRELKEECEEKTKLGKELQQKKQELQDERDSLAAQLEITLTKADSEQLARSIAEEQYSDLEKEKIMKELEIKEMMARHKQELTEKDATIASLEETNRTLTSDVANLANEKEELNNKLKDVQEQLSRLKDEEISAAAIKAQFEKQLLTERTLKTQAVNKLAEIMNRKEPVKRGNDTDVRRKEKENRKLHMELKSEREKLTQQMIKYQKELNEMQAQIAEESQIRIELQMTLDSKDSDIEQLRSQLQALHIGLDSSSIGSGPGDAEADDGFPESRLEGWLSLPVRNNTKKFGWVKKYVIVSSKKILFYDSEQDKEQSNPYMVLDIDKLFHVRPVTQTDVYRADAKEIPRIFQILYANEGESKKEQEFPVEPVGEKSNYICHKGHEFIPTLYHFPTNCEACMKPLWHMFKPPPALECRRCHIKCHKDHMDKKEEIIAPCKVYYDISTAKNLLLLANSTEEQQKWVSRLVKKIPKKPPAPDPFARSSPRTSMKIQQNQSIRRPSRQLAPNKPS

Chain of ROCK1 (Q13464 whole entry, species assumed): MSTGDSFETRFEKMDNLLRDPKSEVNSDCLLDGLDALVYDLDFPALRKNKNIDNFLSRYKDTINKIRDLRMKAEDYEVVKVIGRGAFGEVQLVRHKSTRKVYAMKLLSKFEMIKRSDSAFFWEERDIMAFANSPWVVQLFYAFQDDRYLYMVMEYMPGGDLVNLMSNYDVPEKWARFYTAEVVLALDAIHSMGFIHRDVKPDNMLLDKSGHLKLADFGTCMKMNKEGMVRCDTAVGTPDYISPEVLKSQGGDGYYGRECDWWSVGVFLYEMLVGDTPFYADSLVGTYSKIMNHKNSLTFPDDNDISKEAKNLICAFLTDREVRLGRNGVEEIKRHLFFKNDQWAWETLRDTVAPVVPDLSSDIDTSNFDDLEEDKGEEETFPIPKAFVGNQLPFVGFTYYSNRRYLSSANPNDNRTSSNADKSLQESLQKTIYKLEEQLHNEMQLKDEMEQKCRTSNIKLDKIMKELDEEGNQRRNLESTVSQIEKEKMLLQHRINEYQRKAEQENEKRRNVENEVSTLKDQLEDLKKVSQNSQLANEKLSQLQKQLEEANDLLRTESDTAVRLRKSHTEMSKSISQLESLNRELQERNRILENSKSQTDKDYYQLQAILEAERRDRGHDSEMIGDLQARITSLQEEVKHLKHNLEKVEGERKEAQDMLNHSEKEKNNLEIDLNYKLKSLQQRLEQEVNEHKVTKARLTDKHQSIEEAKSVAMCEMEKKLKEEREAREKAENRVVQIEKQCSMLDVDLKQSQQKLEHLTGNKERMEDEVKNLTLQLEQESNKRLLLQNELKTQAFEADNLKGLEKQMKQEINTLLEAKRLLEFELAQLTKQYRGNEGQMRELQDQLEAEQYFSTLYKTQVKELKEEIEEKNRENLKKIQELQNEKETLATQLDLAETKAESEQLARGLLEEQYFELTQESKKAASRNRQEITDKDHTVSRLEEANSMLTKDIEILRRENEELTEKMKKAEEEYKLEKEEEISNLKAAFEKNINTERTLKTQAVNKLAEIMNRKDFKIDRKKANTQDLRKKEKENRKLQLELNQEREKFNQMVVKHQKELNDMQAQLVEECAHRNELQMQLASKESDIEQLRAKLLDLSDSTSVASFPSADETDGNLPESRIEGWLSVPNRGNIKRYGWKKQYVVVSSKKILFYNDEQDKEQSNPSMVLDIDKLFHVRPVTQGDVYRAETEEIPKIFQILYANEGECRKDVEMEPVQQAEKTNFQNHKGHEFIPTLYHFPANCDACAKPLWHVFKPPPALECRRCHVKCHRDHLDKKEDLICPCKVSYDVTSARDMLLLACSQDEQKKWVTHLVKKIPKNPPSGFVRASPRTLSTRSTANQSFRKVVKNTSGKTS

Structure (SMILES)	IC50 (ROCK1) [µM]	IC50 (ROCK2) [µM]
CN1CCN(Cc2ccc3c(c2)CN(C(=O)Cc2ccc(-c4n[nH]c(=O)c5ccccc45)cc2)C3)CC1 [Example 25]	0.101 to 1	0.0001 to 0.1
O=C(Nc1ccc(-c2n[nH]c(=O)c3ccccc23)cc1)c1nn(CC2CCN(C(=O)OCCF)CC2)c2ccccc12 [Example 350, 2-Fluoroethyl 4-[(3-{[4-(4-oxo-3,4-dihydrophthalazin-1-yl)phenyl]carbamoyl}-1H-indazol-1-yl)methyl]piperidine-1-carboxylate]	0.0001 to 0.1	0.0001 to 0.1
Cn1ccnc1C(=O)Nc1ccc(-c2n[nH]c(=O)c3ccccc23)cc1 [Example 52, 1-methyl-N-[4-(4-oxo-3,4-dihydrophthalazin-1-yl)phenyl]-1H-imidazole-2-carboxamide]	0.101 to 1	0.101 to 1
O=C(Nc1ccc(-c2n[nH]c(=O)c3ccccc23)cc1)c1nc2ccccc2s1 [Example 115, N-[4-(4-oxo-3,4-dihydrophthalazin-1-yl)phenyl]-1,3-benzothiazole-2-carboxamide]	0.0001 to 0.1	0.0001 to 0.1
COc1ccc(N2CCN(C(=O)Cc3ccc(-c4n[nH]c(=O)c5ccccc45)cc3)CC2)cc1 [Example 16, 4-(4-{2-[4-(4-methoxyphenyl)piperazin-1-yl]-2-oxoethyl}phenyl)-1,2-dihydrophthalazin-1-one]	1 to 50	1 to 50
COC(=O)N1CCC(Cn2nc(C(=O)Nc3ccc(-c4n[nH]c(=O)c5ccccc45)cc3)c3ccccc32)CC1 [Example 344, Methyl 4-((3-((4-(4-oxo-3,4-dihydrophthalazin-1-yl)phenyl)carbamoyl)-1H-indazol-1-yl)methyl)piperidine-1-carboxylate]	0.0001 to 0.1	0.0001 to 0.1
Cc1ccc2[nH]c(C(=O)Nc3ccc(-c4n[nH]c(=O)c5ccccc45)cc3)cc2c1 [Example 101, 5-methyl-N-[4-(4-oxo-3,4-dihydrophthalazin-1-yl)phenyl]-1H-indole-2-carboxamide]	0.0001 to 0.1	0.0001 to 0.1
Cc1cc(NC(=O)c2c3ccccc3nn2CCN(C)C)ccc1-c1n[nH]c(=O)c2ccccc12 [Example 304, 2-[2-(dimethylamino)ethyl]-N-[3-methyl-4-(4-oxo-3,4-dihydrophthalazin-1-yl)phenyl]-2H-indazole-3-carboxamide]	0.101 to 1	0.0001 to 0.1
CC(C)(O)CCn1nc(C(=O)Nc2ccc(-c3n[nH]c(=O)c4ccccc34)cc2)c2ccccc21 [Example 333, 1-(3-Hydroxy-3-methylbutyl)-N-(4-(4-oxo-3,4-dihydrophthalazin-1-yl)phenyl)-1H-indazole-3-carboxamide]	0.0001 to 0.1	0.0001 to 0.1
CN1CCN(c2ccc(C(=O)Nc3ccc(-c4n[nH]c(=O)c5ccccc45)cc3)cc2)CC1 [Example 64, 4-(4-methylpiperazin-1-yl)-N-[4-(4-oxo-3,4-dihydrophthalazin-1-yl)phenyl]benzamide]	0.101 to 1	0.0001 to 0.1
CC(C)(O)CNC(=O)CCn1nc(C(=O)Nc2ccc(-c3n[nH]c(=O)c4ccccc34)cc2)c2ccccc21 [Example 336, 1-(3-((2-Hydroxy-2-methylpropyl)amino)-3-oxopropyl)-N-(4-(4-oxo-3,4-dihydrophthalazin-1-yl)phenyl)-1H-indazole-3-carboxamide]	0.0001 to 0.1	0.0001 to 0.1
COc1ccccc1-n1cc(C(=O)Nc2ccc(-c3n[nH]c(=O)c4ccccc34)cc2)cn1 [Example 197, 1-(2-methoxyphenyl)-N-[4-(4-oxo-3,4-dihydrophthalazin-1-yl)phenyl]-1H-pyrazole-4-carboxamide]	0.0001 to 0.1	0.0001 to 0.1
O=C(Nc1ccc(-c2n[nH]c(=O)c3ccccc23)cc1)c1cnn2ccccc12 [Example 103, N-[4-(4-oxo-3,4-dihydrophthalazin-1-yl)phenyl]pyrazolo[1,5-a]pyridine-3-carboxamide]	0.0001 to 0.1	0.0001 to 0.1
CC1(C)CCc2[nH]cc(C(=O)Nc3ccc(-c4n[nH]c(=O)c5ccccc45)cc3)c2C1=O [Example 97, 5,5-dimethyl-4-oxo-N-[4-(4-oxo-3,4-dihydrophthalazin-1-yl)phenyl]-4,5,6,7-tetrahydro-1H-indole-3-carboxamide]	0.101 to 1	0.101 to 1
Cc1cc(NC(=O)c2cc(C(C)(C)C)n(C)n2)ccc1-c1n[nH]c(=O)c2ccccc12 [Example 395, 5-(tert-Butyl)-1-methyl-N-(3-methyl-4-(4-oxo-3,4-dihydrophthalazin-1-yl)phenyl)-1H-pyrazole-3-carboxamide]	0.0001 to 0.1	0.0001 to 0.1
Cc1c(C(=O)Nc2ccc(-c3n[nH]c(=O)c4ccccc34)cc2)nnn1-c1ccccc1 [Example 400, 5-Methyl-N-(4-(4-oxo-3,4-dihydrophthalazin-1-yl)phenyl)-1-phenyl-1H-1,2,3-triazole-4-carboxamide]	0.0001 to 0.1	0.0001 to 0.1
O=C(Nc1ccc(-c2n[nH]c(=O)c3ccccc23)cc1)C1CCN(Cc2ccccc2)C1 (stereo not drawn) [Example 59, 1-benzyl-N-[4-(4-oxo-3,4-dihydrophthalazin-1-yl)phenyl]pyrrolidine-3-carboxamide]	1 to 50	1 to 50

Structure (SMILES)	IC50 (ROCK1) [µM]	IC50 (ROCK2) [µM]
O=C(Cc1ccc(-c2n[nH]c(=O)c3ccccc23)cc1)N1CCc2ccc(O[C@H]3CCOC3)cc21 [Example 275, 4-[4-(2-oxo-2-(6-[(3S)-oxolan-3-yloxy]-2,3-dihydro-1H-indol-1-yl}ethyl)phenyl]-1,2-dihydrophthalazin-1-one]	0.0001 to 0.1	0.0001 to 0.1
COCC(O)Cn1cc(C(=O)Nc2ccc(-c3n[nH]c(=O)c4ccccc34)cc2)cn1 (stereo not drawn) [Example 379, 1-(2-Hydroxy-3-methoxypropyl)-N-(4-(4-oxo-3,4-dihydrophthalazin-1-yl)phenyl)-1H-pyrazole-4-carboxamide]	0.101 to 1	0.0001 to 0.1
Cc1cn2cc(C(=O)Nc3ccc(-c4n[nH]c(=O)c5ccccc45)cc3)nc2cn1 [Example 121, 6-methyl-N-[4-(4-oxo-3,4-dihydrophthalazin-1-yl)phenyl]imidazo[1,2-a]pyrazine-2-carboxamide]	0.101 to 1	0.0001 to 0.1
CC(C)Oc1ccc2c(c1)CCN2C(=O)Cc1ccc(-c2n[nH]c(=O)c3ccccc23)cc1 [Example 273, 4-(4-{2-oxo-2-[5-(propan-2-yloxy)-2,3-dihydro-1H-indol-1-yl]ethyl}phenyl)-1,2-dihydrophthalazin-1-one]	0.101 to 1	0.0001 to 0.1
O=C(Nc1ccc(-c2n[nH]c(=O)c3ccccc23)cc1)c1cnn(-c2ccccc2Cl)c1 [Example 220, 1-(2-chlorophenyl)-N-[4-(4-oxo-3,4-dihydrophthalazin-1-yl)phenyl]-1H-pyrazole-4-carboxamide]	0.0001 to 0.1	0.0001 to 0.1
O=C(Nc1ccc(-c2n[nH]c(=O)c3ccccc23)cc1)c1cnn(C2C3CCC2CC3)c1 (stereo not drawn) [Example 392, 1-(Bicyclo[2.2.1]heptan-7-yl)-N-(4-(4-oxo-3,4-dihydrophthalazin-1-yl)phenyl)-1H-pyrazole-4-carboxamide]	0.0001 to 0.1	0.0001 to 0.1
O=C(Cc1ccc(-c2n[nH]c(=O)c3ccccc23)cc1)N1Cc2ccc(F)cc2C1 [Example 2, 4-(4-(2-(5-Fluoroisoindolin-2-yl)-2-oxoethyl)phenyl)phthalazin-1 (2H)-one]	0.101 to 1	0.0001 to 0.1
O=C(Nc1ccc(-c2n[nH]c(=O)c3ccccc23)cc1)c1ncc(-c2ccncc2)s1 [Example 47, N-[4-(4-oxo-3,4-dihydrophthalazin-1-yl)phenyl]-5-(pyridin-4-yl)-1,3-thiazole-2-carboxamide]	0.101 to 1	0.0001 to 0.1
Cc1nc(C(=O)Nc2ccc(-c3n[nH]c(=O)c4ccccc34)cc2)c[nH]1 [Example 242, 2-methyl-N-[4-(4-oxo-3,4-dihydrophthalazin-1-yl)phenyl]-1H-imidazole-4-carboxamide]	0.101 to 1	0.0001 to 0.1
CC(C)OC(=O)N1CCC(Cn2nc(C(=O)Nc3ccc(-c4n[nH]c(=O)c5ccccc45)cc3)c3ccccc32)CC1 [Example 349, Propan-2-yl 4-[(3-{[4-(4-oxo-3,4-dihydrophthalazin-1-yl)phenyl]carbamoyl}-1H-indazol-1-yl)methyl]piperidine-1-carboxylate]	0.0001 to 0.1	0.0001 to 0.1
O=C(Nc1ccc(-c2c[nH]c(=O)c3ccccc23)cc1)c1onc2ccccc12 [Example 247, N-(4-(1-Oxo-1,2-dihydroisoquinolin-4-yl)phenyl)benzo[c]isoxazole-3-carboxamide]	0.0001 to 0.1	0.0001 to 0.1
O=C(Nc1ccc(-c2n[nH]c(=O)c3ccccc23)cc1)c1nn(CC2COC2)c2cc(F)ccc12 [Example 159, 6-fluoro-1-(oxetan-3-ylmethyl)-N-[4-(4-oxo-3,4-dihydrophthalazin-1-yl)phenyl]-1H-indazole-3-carboxamide]	0.0001 to 0.1	0.0001 to 0.1
CC1(Cn2nc(C(=O)Nc3ccc(-c4n[nH]c(=O)c5ccccc45)cc3)c3ccccc32)COC1 [Example 145, 1-[(3-methyloxetan-3-yl)methyl]-N-[4-(4-oxo-3,4-dihydrophthalazin-1-yl)phenyl]-1H-indazole-3-carboxamide]	0.0001 to 0.1	0.0001 to 0.1
O=c1[nH]nc(-c2ccc(Nc3nncc4ccccc34)cc2)c2ccccc12 [Example 85, 4-(4-(Phthalazin-1-ylamino)phenyl)phthalazin-1(2H)-one]	0.0001 to 0.1	0.0001 to 0.1
O=C(Nc1ccc(-c2n[nH]c(=O)c3ccccc23)cc1)c1nn(CC(O)COCc2ccccc2)c2ccccc12 (stereo not drawn) [Example 147, 1-[3-(benzyloxy)-2-hydroxypropyl]-N-[4-(4-oxo-3,4-dihydrophthalazin-1-yl)phenyl]-1H-indazole-3-carboxamide]	0.0001 to 0.1	0.0001 to 0.1
NC(=O)COc1ccc2c(c1)N(C(=O)Cc1ccc(-c3n[nH]c(=O)c4ccccc34)cc1)CC2 [Example 298, 2-((1-(2-(4-(4-Oxo-3,4-dihydrophthalazin-1-yl)phenyl)acetyl)indolin-6-yl)oxy)acetamide]	0.0001 to 0.1	0.0001 to 0.1
